# Results reported in ChEMBL document CHEMBL1201862, “PubChem BioAssay data set” (2004).
# Calls of active or inactive are those of the source.
# Assays:
# [1] = control 3'UTR Renilla luciferase suppression, dose response, counter-screen for Shn3 inhibitor project, cell-based, Clone20-Shn3RL, cherry-picked (AID 624133); type: functional
# [2] = molecular target: Intestinal-type alkaline phosphatase (Homo sapiens, UniProt P09923); experiment: inhibition of human intestinal alkaline phosphatase – biochemical, dose response (AID 488876); type: functional
# [3] = molecular target: Intestinal-type alkaline phosphatase (Mus musculus, UniProt P24822); experiment: PubChem AID 488785; type: functional
# [4] = HepG2 cell cytotoxicity, dose response, cytotoxicity control for Shn3 inhibitor project, CellTiter-Glo, cherry-picked (AID 624134); type: functional, cell-based
# [5] = Shn3 3'UTR reporter inhibitors, dose response, cell-based, Clone20 osteoblasts, firefly luciferase, cherry-picked (AID 624132); type: functional;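 note: firefly luciferase luminescence from reporter carrying the Shn3 3'UTR in osteoblasts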
# [6] = molecular target: T1, Alkaline phosphatase, tissue-nonspecific isozyme (Homo sapiens, UniProt P05186); experiment: TNAP enzyme inhibition by screening hits, dose response, selectivity assay for mouse IAP inhibitor project, biochemical, human TNAP, uHTS hits (AID 488906); type: functional
# T1 sequence (P05186 whole entry): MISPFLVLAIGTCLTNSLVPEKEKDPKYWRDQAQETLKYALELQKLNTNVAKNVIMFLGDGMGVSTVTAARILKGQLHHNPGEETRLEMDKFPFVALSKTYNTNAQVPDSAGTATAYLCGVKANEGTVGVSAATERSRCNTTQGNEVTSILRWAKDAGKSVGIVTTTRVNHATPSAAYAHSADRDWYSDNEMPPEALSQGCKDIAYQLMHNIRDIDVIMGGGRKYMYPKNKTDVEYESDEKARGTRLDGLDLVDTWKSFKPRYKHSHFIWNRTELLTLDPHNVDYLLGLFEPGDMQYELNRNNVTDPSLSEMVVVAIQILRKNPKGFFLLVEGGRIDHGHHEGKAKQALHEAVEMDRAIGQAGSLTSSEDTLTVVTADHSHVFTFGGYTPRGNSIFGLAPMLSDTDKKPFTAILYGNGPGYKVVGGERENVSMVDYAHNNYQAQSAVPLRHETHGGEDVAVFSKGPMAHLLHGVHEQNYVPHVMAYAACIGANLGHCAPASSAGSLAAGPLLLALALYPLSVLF
# [7] = molecular target: T1, Alkaline phosphatase, tissue-nonspecific isozyme
# [8] = molecular target: T2, Polyadenylate-binding protein 1 (Homo sapiens, UniProt P11940); experiment: PABP poly(A) RNA binding inhibitors, primary screen, biochemical, fluorescence polarization, uHTS (AID 2014)
# [9] = molecular target: DNA dC->dU-editing enzyme APOBEC-3G (Homo sapiens, UniProt Q9HC16); type: functional;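 note: Dose-response counterscreen measuring inhibition of APOBEC3G DNA deaminase activity, run while confirming APOBEC3A inhibitors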
# [10] = molecular target: T3, Eukaryotic translation initiation factor 4H (Homo sapiens, UniProt Q15056); experiment: human eIF4H binding inhibitors, primary screen, translation initiation inhibitor project, biochemical, uHTS, fluorescence polarization (AID 2012)
# [11] = molecular target: T3, Eukaryotic translation initiation factor 4H; experiment: eIF4H inhibition in translation initiation, SAR follow-up (AID 435011); type: functional
# [12] = molecular target: DNA dC->dU-editing enzyme APOBEC-3A (Homo sapiens, UniProt P31941); experiment: Dose Response confirmation of small molecule APOBEC3A DNA Deaminase Inhibitors via a fluorescence-based single-stranded DNA deaminase assay. [Related pubchem assays (depositor defined):AID493011, AID493024]; type: functional
# [13] = molecular target: T2, Polyadenylate-binding protein 1; experiment: PABP inhibition in translation initiation, SAR follow-up (AID 435018); type: functional
# [14] = molecular target: T4, Histone-lysine N-methyltransferase NSD2 (Homo sapiens, UniProt O96028); type: biochemical
# T4 sequence (O96028 whole entry): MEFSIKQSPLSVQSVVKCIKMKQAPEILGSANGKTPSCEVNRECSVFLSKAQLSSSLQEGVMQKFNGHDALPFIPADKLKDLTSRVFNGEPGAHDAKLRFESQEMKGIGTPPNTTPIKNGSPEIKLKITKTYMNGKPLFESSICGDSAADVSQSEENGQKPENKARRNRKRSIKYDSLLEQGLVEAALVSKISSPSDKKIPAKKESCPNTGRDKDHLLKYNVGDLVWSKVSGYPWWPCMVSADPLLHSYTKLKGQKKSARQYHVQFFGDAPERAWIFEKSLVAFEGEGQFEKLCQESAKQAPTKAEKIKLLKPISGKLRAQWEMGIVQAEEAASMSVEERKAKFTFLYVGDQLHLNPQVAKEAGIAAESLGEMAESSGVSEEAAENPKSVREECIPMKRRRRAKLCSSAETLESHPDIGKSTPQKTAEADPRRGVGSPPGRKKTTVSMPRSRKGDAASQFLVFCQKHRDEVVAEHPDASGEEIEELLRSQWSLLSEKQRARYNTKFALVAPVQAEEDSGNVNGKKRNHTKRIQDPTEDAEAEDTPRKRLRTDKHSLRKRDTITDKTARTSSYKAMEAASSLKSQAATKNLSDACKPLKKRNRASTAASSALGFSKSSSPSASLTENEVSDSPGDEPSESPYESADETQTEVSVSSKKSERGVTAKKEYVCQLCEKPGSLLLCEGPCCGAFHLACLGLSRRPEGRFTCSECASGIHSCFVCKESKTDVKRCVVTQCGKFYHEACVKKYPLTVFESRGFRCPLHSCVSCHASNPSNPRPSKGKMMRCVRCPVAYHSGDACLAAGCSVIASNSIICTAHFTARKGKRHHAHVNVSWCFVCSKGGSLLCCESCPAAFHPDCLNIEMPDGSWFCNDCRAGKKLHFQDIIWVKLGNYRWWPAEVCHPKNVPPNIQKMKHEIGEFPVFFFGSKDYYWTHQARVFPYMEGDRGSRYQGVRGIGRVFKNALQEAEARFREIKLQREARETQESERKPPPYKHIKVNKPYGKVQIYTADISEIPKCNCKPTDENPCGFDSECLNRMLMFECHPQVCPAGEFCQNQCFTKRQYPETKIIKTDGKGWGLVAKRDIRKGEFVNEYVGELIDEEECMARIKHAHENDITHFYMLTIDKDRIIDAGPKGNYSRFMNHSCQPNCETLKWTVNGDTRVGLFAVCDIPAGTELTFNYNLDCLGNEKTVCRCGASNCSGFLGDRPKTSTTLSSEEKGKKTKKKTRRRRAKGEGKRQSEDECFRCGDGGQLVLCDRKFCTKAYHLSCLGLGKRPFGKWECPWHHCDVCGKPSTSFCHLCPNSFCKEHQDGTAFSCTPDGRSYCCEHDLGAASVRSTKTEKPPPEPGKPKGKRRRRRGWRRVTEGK
# [15] = molecular target: DNA (cytosine-5)-methyltransferase 1 (Homo sapiens, UniProt P26358); experiment: DNMT1 methyltransferase inhibitors, confirmation, biochemical, fluorescent molecular beacon (AID 602386); type: functional
# [16] = molecular target: T5, Long-chain-fatty-acid--AMP ligase FadD28 (Mycobacterium tuberculosis, UniProt P9WQ59); experiment: Fluorescence polarization aasay to screen for inhibitors that compete for the binding of FadD28 to a bisubstrate Measured in Biochemical System Using Plate Reader - 2147-01_Inhibitor_Dose_CherryPick_Activity.; type: functional, Mycobacterium tuberculosis H37Rv
# T5 sequence (P9WQ59 whole entry): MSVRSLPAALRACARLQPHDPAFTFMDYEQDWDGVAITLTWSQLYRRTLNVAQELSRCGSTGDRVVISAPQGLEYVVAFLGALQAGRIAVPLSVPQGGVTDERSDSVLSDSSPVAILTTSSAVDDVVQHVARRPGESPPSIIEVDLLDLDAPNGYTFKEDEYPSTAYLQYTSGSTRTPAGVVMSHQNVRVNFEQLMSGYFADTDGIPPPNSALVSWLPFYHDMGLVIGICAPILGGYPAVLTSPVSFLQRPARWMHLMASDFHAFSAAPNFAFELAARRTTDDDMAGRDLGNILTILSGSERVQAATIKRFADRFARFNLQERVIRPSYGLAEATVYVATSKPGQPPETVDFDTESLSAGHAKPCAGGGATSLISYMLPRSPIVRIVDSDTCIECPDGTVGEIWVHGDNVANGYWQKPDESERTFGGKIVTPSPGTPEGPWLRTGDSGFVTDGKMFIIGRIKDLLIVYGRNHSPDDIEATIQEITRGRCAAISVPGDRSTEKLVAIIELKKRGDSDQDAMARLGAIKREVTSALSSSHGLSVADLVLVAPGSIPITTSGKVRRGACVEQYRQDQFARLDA
# [17] = molecular target: T6, Carboxy-terminal domain RNA polymerase II polypeptide A small phosphatase 1 (Homo sapiens, UniProt Q9GZU7); experiment: inhibitors of CTDSP1, concentration-response testing, biochemical assay, absorbance-based, actives from ultra-high-throughput screening (AID 540297); type: functional
# T6 sequence (Q9GZU7 whole entry): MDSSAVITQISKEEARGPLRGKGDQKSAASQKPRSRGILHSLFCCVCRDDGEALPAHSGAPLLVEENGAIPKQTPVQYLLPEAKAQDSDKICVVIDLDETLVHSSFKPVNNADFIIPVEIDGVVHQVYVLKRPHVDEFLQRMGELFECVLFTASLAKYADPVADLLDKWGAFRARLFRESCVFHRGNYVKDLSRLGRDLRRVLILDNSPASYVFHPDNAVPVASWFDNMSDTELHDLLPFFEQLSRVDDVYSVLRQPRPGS
# ORF 73 = molecular target: T7, ORF 73 (Human herpesvirus 8, UniProt O40947); experiment: inhibitors of C-LANA binding to LBS DNA, dose response, biochemical, fluorescence polarization, cherry-picked samples (AID 504725); set-up: species or system Human gammaherpesvirus 8;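 note: fluorescence polarization of a labeled DNA duplex reporting LANA DNA binding; potency is for inhibitors that block LANA binding to the DNA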
# T7 sequence (O40947 whole entry): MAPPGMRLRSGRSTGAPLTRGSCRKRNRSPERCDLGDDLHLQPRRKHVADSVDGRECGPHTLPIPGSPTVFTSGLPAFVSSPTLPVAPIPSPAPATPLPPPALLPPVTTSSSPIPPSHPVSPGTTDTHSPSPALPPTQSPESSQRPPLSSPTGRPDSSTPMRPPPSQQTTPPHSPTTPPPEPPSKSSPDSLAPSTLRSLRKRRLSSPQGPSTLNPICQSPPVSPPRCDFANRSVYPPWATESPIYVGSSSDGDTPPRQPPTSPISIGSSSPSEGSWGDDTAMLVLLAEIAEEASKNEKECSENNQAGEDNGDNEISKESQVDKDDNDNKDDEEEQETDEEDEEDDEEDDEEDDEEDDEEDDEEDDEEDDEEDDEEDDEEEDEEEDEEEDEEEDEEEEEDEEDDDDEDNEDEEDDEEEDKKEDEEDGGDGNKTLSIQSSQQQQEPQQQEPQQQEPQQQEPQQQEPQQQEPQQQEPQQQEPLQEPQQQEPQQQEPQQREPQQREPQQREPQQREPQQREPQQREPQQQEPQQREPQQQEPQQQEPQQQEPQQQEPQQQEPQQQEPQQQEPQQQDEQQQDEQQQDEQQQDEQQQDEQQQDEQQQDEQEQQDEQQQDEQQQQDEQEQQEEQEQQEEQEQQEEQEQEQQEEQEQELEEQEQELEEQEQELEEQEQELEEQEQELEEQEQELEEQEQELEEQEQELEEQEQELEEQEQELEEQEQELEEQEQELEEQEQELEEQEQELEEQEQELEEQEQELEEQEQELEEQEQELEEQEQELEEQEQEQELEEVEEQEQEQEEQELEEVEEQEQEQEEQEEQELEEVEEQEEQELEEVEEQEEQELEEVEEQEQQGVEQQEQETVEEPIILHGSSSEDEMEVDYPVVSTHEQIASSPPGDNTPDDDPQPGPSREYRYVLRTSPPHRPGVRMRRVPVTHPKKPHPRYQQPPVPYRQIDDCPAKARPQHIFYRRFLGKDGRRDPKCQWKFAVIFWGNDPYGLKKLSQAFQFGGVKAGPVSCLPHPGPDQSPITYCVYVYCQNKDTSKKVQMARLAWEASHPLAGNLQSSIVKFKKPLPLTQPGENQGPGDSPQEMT
# Leucine aminopeptidase = Leucine aminopeptidase (Plasmodium falciparum 3D7, UniProt Q8IL11); experiment: P. falciparum M17LAP inhibitors, primary screen, biochemical, fluorogenic H-Leu-NHMec substrate, 1536-well (AID 1619); type: functional
# [18] = molecular target: Bifunctional protein GlmU (Mycobacterium tuberculosis, UniProt P9WMN3); experiment: Inhibitors of Mycobacterial Glucosamine-1-phosphate acetyl transferase (GlmU). Secondary screen.; set-up: species or system Mycobacterium tuberculosis H37Rv
# X-box-binding protein 1 = X-box-binding protein 1 (Homo sapiens, UniProt P17861); type: functional, Cricetulus griseus;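 note: confirmatory dose-response counter-screen serving a CHOP assay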
# Chain of X-box-binding protein 1 (P17861 whole entry): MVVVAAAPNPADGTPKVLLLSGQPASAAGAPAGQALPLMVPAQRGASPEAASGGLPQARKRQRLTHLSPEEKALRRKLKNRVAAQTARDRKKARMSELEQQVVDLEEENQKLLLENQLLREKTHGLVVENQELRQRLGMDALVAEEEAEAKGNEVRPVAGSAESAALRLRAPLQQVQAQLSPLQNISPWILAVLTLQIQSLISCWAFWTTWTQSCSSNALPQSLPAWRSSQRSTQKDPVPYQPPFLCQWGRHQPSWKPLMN
# T2 sequence (P11940 whole entry): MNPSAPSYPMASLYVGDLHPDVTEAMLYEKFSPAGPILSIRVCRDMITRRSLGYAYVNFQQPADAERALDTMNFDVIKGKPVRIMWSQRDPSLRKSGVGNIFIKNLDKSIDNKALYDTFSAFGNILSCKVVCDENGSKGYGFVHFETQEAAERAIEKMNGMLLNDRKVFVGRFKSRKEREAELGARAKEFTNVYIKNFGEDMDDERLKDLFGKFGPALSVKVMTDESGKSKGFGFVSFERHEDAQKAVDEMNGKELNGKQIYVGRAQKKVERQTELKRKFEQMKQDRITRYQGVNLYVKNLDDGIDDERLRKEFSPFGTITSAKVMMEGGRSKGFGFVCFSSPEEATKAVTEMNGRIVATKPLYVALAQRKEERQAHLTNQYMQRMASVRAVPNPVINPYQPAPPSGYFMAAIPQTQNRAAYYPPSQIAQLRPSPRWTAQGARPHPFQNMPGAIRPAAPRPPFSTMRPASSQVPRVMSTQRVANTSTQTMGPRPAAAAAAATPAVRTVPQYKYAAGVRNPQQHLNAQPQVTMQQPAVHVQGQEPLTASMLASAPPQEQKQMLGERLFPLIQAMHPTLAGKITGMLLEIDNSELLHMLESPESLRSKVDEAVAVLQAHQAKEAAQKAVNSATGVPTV
# Chain of Intestinal-type alkaline phosphatase (Homo sapiens, UniProt P09923) (P09923 whole entry): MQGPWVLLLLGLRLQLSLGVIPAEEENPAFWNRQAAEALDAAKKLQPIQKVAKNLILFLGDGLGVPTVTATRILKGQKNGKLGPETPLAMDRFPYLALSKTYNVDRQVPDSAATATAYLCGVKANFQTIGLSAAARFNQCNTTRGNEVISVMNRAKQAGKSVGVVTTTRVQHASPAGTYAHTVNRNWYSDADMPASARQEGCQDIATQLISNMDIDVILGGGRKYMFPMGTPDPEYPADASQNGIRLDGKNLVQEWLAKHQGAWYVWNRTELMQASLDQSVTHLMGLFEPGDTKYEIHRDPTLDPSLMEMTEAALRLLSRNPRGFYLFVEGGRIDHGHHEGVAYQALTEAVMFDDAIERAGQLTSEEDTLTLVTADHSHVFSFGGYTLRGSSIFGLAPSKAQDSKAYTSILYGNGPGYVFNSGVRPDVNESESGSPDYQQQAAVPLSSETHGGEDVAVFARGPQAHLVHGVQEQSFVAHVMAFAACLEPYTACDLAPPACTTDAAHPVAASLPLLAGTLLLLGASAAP
# Chain of Bifunctional protein GlmU (P9WMN3 whole entry): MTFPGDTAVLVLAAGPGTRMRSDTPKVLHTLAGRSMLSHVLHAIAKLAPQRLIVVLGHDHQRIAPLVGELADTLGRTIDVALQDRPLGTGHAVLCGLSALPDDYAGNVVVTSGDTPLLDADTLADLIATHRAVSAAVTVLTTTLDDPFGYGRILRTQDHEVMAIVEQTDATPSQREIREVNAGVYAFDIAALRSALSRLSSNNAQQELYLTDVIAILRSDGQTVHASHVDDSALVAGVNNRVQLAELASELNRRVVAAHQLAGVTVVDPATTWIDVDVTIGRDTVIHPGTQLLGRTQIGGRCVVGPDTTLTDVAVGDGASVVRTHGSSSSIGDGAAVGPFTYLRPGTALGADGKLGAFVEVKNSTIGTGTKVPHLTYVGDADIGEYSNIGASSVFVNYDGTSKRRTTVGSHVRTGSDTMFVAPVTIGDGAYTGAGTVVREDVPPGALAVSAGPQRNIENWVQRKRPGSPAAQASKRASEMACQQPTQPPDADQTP
# Chain of DNA dC->dU-editing enzyme APOBEC-3G (Q9HC16 whole entry): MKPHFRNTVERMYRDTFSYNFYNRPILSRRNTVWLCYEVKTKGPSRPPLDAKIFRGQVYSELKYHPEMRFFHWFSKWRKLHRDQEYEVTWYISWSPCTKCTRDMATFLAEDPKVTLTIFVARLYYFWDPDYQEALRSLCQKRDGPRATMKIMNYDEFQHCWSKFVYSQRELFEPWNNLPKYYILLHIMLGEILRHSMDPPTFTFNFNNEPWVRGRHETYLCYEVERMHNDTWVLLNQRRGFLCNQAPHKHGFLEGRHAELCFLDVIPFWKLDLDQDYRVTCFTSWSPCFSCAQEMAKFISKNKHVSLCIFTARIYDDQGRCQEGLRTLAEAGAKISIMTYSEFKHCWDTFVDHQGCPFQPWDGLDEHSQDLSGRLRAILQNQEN
# Chain of Leucine aminopeptidase (Q8IL11 whole entry): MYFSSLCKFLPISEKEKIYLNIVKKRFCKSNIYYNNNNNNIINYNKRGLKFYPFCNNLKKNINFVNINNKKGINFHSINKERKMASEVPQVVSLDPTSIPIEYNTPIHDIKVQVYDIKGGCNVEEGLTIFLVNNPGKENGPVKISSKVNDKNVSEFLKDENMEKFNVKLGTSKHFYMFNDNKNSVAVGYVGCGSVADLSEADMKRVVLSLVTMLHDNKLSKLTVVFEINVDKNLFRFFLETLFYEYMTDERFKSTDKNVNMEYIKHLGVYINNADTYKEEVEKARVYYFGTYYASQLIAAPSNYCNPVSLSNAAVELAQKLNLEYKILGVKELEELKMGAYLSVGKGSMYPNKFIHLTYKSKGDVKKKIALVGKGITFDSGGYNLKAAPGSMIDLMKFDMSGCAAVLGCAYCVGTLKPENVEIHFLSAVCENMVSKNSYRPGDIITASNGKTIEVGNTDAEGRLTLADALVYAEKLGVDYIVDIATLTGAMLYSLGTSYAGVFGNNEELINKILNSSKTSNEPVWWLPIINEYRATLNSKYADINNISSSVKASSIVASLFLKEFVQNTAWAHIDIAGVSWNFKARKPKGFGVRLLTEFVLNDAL
# Chain of DNA dC->dU-editing enzyme APOBEC-3A (P31941 whole entry): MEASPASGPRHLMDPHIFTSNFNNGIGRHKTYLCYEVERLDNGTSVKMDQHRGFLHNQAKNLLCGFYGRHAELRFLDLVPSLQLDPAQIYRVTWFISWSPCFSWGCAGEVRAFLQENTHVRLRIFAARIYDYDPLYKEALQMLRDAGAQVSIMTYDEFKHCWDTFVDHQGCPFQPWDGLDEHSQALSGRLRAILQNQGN
# Chain of DNA (cytosine-5)-methyltransferase 1 (P26358 whole entry): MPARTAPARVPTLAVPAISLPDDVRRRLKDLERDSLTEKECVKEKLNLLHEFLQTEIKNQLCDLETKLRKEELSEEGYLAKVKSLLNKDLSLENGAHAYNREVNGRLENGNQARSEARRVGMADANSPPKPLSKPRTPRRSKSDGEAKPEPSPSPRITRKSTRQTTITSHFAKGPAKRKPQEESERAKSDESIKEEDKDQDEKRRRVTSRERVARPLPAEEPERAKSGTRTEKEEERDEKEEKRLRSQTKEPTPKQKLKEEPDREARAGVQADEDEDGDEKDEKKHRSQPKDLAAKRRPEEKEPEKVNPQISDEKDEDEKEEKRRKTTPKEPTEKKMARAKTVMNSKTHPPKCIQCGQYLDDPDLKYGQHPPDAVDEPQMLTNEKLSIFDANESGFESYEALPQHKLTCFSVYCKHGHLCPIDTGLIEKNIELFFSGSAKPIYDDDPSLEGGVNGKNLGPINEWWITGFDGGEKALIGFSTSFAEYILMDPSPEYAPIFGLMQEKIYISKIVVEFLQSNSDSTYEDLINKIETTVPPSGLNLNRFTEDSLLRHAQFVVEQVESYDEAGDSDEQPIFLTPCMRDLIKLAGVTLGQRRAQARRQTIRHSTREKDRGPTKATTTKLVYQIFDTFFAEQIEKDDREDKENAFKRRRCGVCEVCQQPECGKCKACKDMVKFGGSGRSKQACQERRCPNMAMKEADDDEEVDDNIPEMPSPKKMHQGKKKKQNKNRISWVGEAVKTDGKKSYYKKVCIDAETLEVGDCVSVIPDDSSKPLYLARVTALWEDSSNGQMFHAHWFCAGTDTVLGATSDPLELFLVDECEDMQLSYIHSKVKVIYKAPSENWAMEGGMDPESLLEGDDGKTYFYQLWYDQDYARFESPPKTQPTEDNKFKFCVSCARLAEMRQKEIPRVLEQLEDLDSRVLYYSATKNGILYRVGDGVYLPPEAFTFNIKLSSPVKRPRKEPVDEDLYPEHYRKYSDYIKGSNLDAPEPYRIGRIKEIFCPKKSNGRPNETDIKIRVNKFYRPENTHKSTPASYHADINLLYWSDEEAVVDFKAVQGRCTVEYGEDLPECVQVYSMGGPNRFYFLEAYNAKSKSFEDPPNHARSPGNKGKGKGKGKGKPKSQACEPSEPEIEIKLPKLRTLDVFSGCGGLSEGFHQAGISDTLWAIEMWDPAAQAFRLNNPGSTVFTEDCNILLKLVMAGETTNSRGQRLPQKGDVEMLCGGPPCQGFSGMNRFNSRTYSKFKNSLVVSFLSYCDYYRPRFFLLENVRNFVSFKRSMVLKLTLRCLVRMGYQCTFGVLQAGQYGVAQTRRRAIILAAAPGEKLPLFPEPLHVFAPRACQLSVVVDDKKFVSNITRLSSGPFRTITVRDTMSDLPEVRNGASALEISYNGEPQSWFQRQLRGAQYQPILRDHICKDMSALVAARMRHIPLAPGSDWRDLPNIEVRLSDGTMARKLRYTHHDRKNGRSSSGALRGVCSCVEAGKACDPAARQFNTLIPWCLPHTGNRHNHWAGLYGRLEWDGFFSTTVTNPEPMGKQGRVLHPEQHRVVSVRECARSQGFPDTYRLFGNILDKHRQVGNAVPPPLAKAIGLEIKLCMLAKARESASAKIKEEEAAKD
structure (smiles),measurement,setting,value
Cc1ccc(N=C(N)Nc2nc(C)cc(N3CCCCC3)n2)c(C)c1,AC50,[1],0.639 µM (active)
same,IC50,[2],70.1 µM (active)
same,IC50,[3],3.34 µM (active)
same,AC50,[4],5.74 µM (active)
same,AC50,[5],0.891 µM (active)
same,IC50,[6],32.1 µM (active)
same,EC50,[7],71.7 µM (not active)
CCN1CCN(S(=O)(=O)c2ccc(Cl)c(C(=O)N(CC)CC(=O)Nc3ccc(OC)cc3)c2)CC1,IC50,[8],3.26 µM (active)
same,IC50,[9],3.43 µM (active)
same,IC50,[10],85.9 µM (active)
same,IC50,[11],21 µM (active)
same,IC50,[12],3.4 µM (active)
same,IC50,[13],4.68 µM (active)
CC(C)CN=C(S)NNC(=O)c1ccc2c(c1)OCO2,EC50,[7],40.7 µM (active)
Cc1cc(/C=C2\C(=O)NC(=O)N(Cc3ccccc3)C2=O)c(C)n1-c1ccc(Cl)c(C(=O)O)c1,AC50,[14],5.47 µM (active)
same,IC50,[15],3.35 µM (active)
same,AC50,[16],35.6 µM (active)
same,IC50,[17],1.02 µM (active)
same,AC50,ORF 73,76.2 µM (active)
same,IC50,Leucine aminopeptidase,72.7 µM (active)
same,IC50,[18],71.9 µM (active)
Cc1ccc(/C=N/n2c(S)nnc2C2CCCCC2)s1,Absolute IC50 (XBP1),X-box-binding protein 1,10 µM
CC(=O)Nc1cccc(NC(=O)CSc2ccc(-c3ccco3)nn2)c1,IC50,[8],46.3 µM (active)
same,IC50,[10],10.3 µM (active)
same,IC50,[11],25 µM (active)
same,IC50,[13],> 100 µM (inactive)
